In PubChem BioAssay (NCI):
Where “and” joins values, the source holds several entries; their conditions need not be identical. Equal values may be shown once.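 Dose response: 5 concentrations. Exposure: 48 h. Format: 96-well plates. Endpoint: linear interpolation; highest concentration if not reached. At the GI50, growth is halved. TGI: total growth inhibition.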

Experiments:
Experiment in all cases: growth of human tumour cells (NCI), 48 h
786-0 renal = system: 786-0 renal
ACHN renal = system: ACHN renal
HOP-92 NSCLC = system: HOP-92 NSCLC
OVCAR-3 ovarian = system: OVCAR-3 ovarian
OVCAR-5 ovarian = system: OVCAR-5 ovarian
SNB-19 CNS = system: SNB-19 CNS
UACC-257 melanoma = system: UACC-257 melanoma
BT-549 breast = system: BT-549 breast
MDA-MB-231 breast = system: MDA-MB-231 breast
HS 578T breast = system: HS 578T breast

SMILES	TGI (786-0 renal) [µM]	TGI (ACHN renal) [µM]	TGI (HOP-92 NSCLC) [µM]	TGI (OVCAR-3 ovarian)	TGI (OVCAR-5 ovarian) [µM]	TGI (SNB-19 CNS) [µM]	TGI (UACC-257 melanoma) [µM]	GI50 (786-0 renal) [µM]	GI50 (ACHN renal) [µM]	GI50 (HOP-92 NSCLC) [µM]	GI50 (OVCAR-3 ovarian) [µM]	GI50 (OVCAR-5 ovarian) [µM]	GI50 (SNB-19 CNS) [µM]	GI50 (UACC-257 melanoma) [µM]	GI50 (BT-549 breast) [µM]	TGI (BT-549 breast) [µM]	GI50 (MDA-MB-231 breast) [µM]	TGI (MDA-MB-231 breast)	TGI (HS 578T breast) [µM]	GI50 (HS 578T breast) [µM]
Cc1ccc(NC(=O)C2C(=O)N(c3ccc(C)cc3)C(=O)/C2=N\NC(N)=S)cc1 (stereo not given)	> 100	> 100	> 100	> 100 µM	> 100	> 100	> 100													
CC(=O)[O][Ga]([Cl])[O]C(C)=O	> 100	> 100	> 100	> 100 µM	> 100	> 100	> 100	> 100	> 100	> 100	> 100	> 100	> 100	> 100						
Cc1[nH]c2ccccc2c1C(=O)CC1(O)C(=O)Nc2ccccc21 (stereo not given)	> 100	> 100	> 100		> 100	> 100	> 100													
O=C(O)CCCCCCC[C@H]1S[C@H]1CCCCCCO	> 100			> 100 µM	> 100	> 100														
CC(=O)[CH-]C(C)=O.CC(=O)[CH-]C(C)=O.[CH2-]CCC.[CH2-]CCC.[Sn+4]	1.56	1.66	1.25	1.96 µM	3.22	1.97	1.68	0.351	0.487	0.256	0.707	1.82	0.663	0.376						
[Cl-].[O-]/N=C(\c1ccccc1)c1ccccn1.[O-]/N=C(\c1ccccc1)c1ccccn1.[O-]/N=C(\c1ccccc1)c1ccccn1.[Sm+3]	65.5	> 100	87.8	73.7 µM	> 100	> 100	73.6	24.1	29.3	23.6	18	53.9	36	23.8						
COc1ccc2c(CN3CCCCC3CO)cc3cc(OC)c(OC)cc3c2c1 (stereo not given)	17.3	31.1	9.82	19.4 µM	12	16.5	13.7													
CCCCCC(=O)C(C)C1=Nc2nnc(CCCCCCCc3nnc4n3C(=O)C(C(C)C(=O)CCCCC)=N4)n2C1=O (stereo not given)	> 100	> 100		> 100 µM	> 100	> 100	> 100													
CC(C)=CC(=O)C/C(=N\NC(N)=S)C(=O)Nc1ccc(Cl)cc1	> 100	> 100		> 100 µM	> 100	> 100	> 100													
Cc1sc2nc(-c3ccncc3)c(/C=N/N=C(N)N)n2c1C	92.1	> 100		89.7 µM	> 100	> 100		32.2	49.7		26	74.6	36.3		73.5	> 100	25.3	61.5 µM		
Cc1nc(Nc2ccc(Cl)cc2)sc1C(=O)NNc1ccc([N+](=O)[O-])cc1[N+](=O)[O-]	29.8	40.9	41.4	38.7 µM	30.7	30.4	31.3													
COc1cccc(-c2cc(=O)c3cc(OC)ccc3[nH]2)c1	65.3	> 100		0.384 µM and 0.0812 µM	> 100		> 100	0.15	0.661	7.15	0.025	0.528		0.0325				4.53 µM and 21.6 µM	0.885	
c1cc(N(CCn2cccn2)CCn2cccn2)cc(N(CCn2cccn2)CCn2cccn2)c1	> 100	> 100	> 100	> 100 µM		> 100	> 100													
COC(=O)/C=C1/CCC(C(=O)OC)N1 (stereo not given)	> 100	> 100	> 100	> 100 µM		> 100	> 100													
CC1CCC2(CC1)NN=c1s/c(=C\c3ccc(O)cc3)c(=O)n1N2 (stereo not given)	> 100			> 100 µM		> 100														
Cn1cc(C2=C(c3cn(CCCCN)c4ccccc34)C(=O)NC2=O)c2ccccc21	> 25	> 25		> 25 µM	> 25	> 25	> 25	> 25	> 25		> 25	> 25	> 25	> 25	> 25	> 25	> 25	> 25 µM	> 25	> 25
COCCCNC(=O)C1C(=O)N(CCCOC)C(=O)/C1=N\N (stereo not given)	> 100	> 100	> 100	> 100 µM	> 100	> 100	> 100													

SMILES	TGI (786-0 renal) [µM]	TGI (ACHN renal) [µM]	TGI (HOP-92 NSCLC) [µM]	TGI (OVCAR-3 ovarian)	TGI (OVCAR-5 ovarian) [µM]	TGI (SNB-19 CNS) [µM]	TGI (UACC-257 melanoma) [µM]	GI50 (786-0 renal) [µM]	GI50 (ACHN renal) [µM]	GI50 (HOP-92 NSCLC) [µM]	GI50 (OVCAR-3 ovarian) [µM]	GI50 (OVCAR-5 ovarian) [µM]	GI50 (SNB-19 CNS) [µM]	GI50 (UACC-257 melanoma) [µM]	GI50 (BT-549 breast) [µM]	TGI (BT-549 breast) [µM]	GI50 (MDA-MB-231 breast) [µM]	TGI (MDA-MB-231 breast)	TGI (HS 578T breast) [µM]	GI50 (HS 578T breast) [µM]
C#Cc1cccc(N2C(=O)CCC2=O)c1	40.5	30.6		37.3 µM	32.5	48	29.9											44.6 µM	85.8	
O=C(CP(=O)(O)O)NC(CC(=O)OCc1ccccc1)C(=O)OCc1ccccc1 (stereo not given)	> 100	> 100	> 100	> 100 µM	> 100	> 100	> 100											> 100 µM	> 100	
CCOC(=O)C1N(S(=O)(=O)c2ccc(C)cc2)CCC12c1ccccc1N(C(C)=O)C2c1ccc(OC)c(OC)c1 (stereo not given)	> 100	> 100	> 100	> 100 µM	> 100	> 100	> 100													
Oc1[nH]c2ccccc2c1N=Nc1ccccn1	29.6	23		> 100 µM	> 100	> 100	> 100									> 100		38.1 µM	> 100	
COc1ccc(Nc2nc3ccc(C(F)(F)F)cc3nc2-c2ccccc2)cc1OC	72.7	> 100	36.9	> 100 µM	> 100		> 100													
CC(C)CC(NC(=O)c1cccc(O)c1O)C(=O)NCc1cc(CNC(=O)C(CC(C)C)NC(=O)c2cccc(O)c2O)cc(CNC(=O)C(CC(C)C)NC(=O)c2cccc(O)c2O)c1 (stereo not given)	> 100	> 100	32	19.7 µM	27.1	47.3	58.9													
COc1ccc2c(c1)N1CCc3cc(OC)c(OC)cc3C1C2 (stereo not given)	> 100	> 100	> 100			> 100	> 100													
COc1cc(NC(N)=NCCC(C)(C)Oc2ccc(C(F)(F)F)cc2)ncc1C#N	3.14	3.06	2.8	3.17 µM	3.36	3.3	3.11	1.61	1.7	1.38	1.68	1.88	1.84	1.7	1.81	3.38	1.75	3.21 µM		
CN(C)CC(C)(C)C(=O)/C=C/c1ccc(/C=C/C(=O)C(C)(C)CN(C)C)cc1	3.08	2.84	2.22	2.59 µM	3.51	4.75	3.83													
Clc1ccc(SC(/C=C/NNC2=NC(c3ccccc3)C(c3ccccc3)=NN2)c2ccccc2)cc1 (stereo not given)	> 100	> 100	32.6	60.5 µM	> 100	> 100	55.2													
CCCCCC[N+](C)(C)Cc1ccc(C[N+](C)(C)CCCCCC)cc1	18.1	24.8	7.17	14.4 µM	24.7	67.4	35.5													
C=C1C(=O)O[C@@H]2C[C@@H](C)[C@@H]3C=CC(=O)[C@@]3(C)[C@@H](OC(=O)CC(=O)O[C@H]3[C@@H]4C(=C)C(=O)O[C@@H]4C[C@@H](C)[C@@H]4C=CC(=O)[C@]43C)[C@H]12	0.0355	0.189	0.0746	0.159 µM	0.39	1.73	0.0812									0.161		1.32 µM		
CCC[CH2][Sn]([CH2]CCC)([CH2]CCC)[O]c1ccc(Cl)cc1Cl	0.266	0.291	0.384	0.259 µM	0.298	0.344	0.305	0.135	0.155	0.0733	0.128	0.14	0.175	0.154	0.154	0.315	0.122	0.284 µM		
O=c1nc(/C=C/c2ccccc2Cl)cc2n1CCN2CCO	> 100	> 100	> 100	79.8 µM	> 100															
O=C1c2ccccc2C(Br)(Br)c2ccccc21	> 31.6	> 31.6	> 100	> 31.6 µM	> 31.6	> 31.6	> 100													
CC(C)CCC(=O)c1ccoc1	> 100	> 100	> 100	> 100 µM	> 100	> 100	> 100											> 100 µM	> 100	
